Test system: CD4+CD28null T cells from lung transplant recipients with BOS
Test: Inhibition of proliferation by cyclosporine A (BrdU incorporation, anti-CD3 stimulation)
Assay type: cell-based, human
Details: preliminary findings, n=2 subjects
Experimental: Inhibition of Proliferation by Cyclosporine A (CsA) Segregated CD28+ and CD28null CD4 T-cell subpopulations were individually cultured in duplicate wells coated with anti-CD3 monoclonal antibody (OKT3) (see above). Autologous nurse cells, positively selected during the initial CD4 T-cell isolations (see above) were added in a 3:1 nurse cell:CD4 T-cell ratio. In order to eliminate potential confounding by CD4dim monocytes, all CD4+ cells were depleted from the nurse cells (<<1% residual), prior to their use in cultures, by positive selection with anti-CD4-coated magnetic beads (Invitrogen, Carlsbad, Calif.). Cyclosporine (Novartis, East Hanover, N.J.) to a final concentration of 100 ng/ml was added to half the wells. Proliferation within the respective CD4 subpopulations were measured by bromodeoxyuridine (BrdU) incorporation, using reagents and methods supplied in a kit (BD Pharmingen). In brief, BrdU in a final concentration of 10 μM was added to cultures two days prior to their harvests. After 5±1 days of culture, cells were harvested from wells and stained with anti-CD4, fixed and permeabilized, and then incubated with anti-BrdU and 7-amino-actinomycin (7-AAD). The proportion of proliferating CD4+ T cells (BrdU+) among the viable cells (≧diploid DNA content) was determined by flow cytometry.

## C=CC[C@@H]1/C=C(\C)C[C@H](C)C[C@H](OC)[C@H]2O[C@@](O)(C(=O)C(=O)N3CCCC[C@H]3C(=O)O[C@H](/C(C)=C/[C@@H]3CC[C@@H](O)[C@H](OC)C3)[C@H](C)[C@@H](O)CC1=O)[C@H](C)C[C@@H]2OC [tacrolimus]
  resistance of the cells to the drug: relatively resistant

Source: US20110111437A1, “Biomarkers For Prognosis of Pulmonary Diseases” (THE UNIVERSITY OF PITTSBURGH-OF THE COMMONWEALTH SYSTEM OF …, priority 2009, published 2011)
